Assay results: US6114572A, “Substituted phenols and thiophenols useful as antioxidant agents” (priority 1997, dated 2000)
Like-named read-outs stand apart in the source and are kept apart here.

Tests used:
[1] = Animal parameters (food, body weight, liver weight, mortality) in male Sprague-Dawley rats; format: in vivo; settings: for mortality at 96 h: po, read-out: mortality (deaths per group); for mortality at 96 h / body wt., percent of control: rat
Excerpt: (§1) A typical experiment consists of 4-6 groups of rats (N=5 per group) with 1 group being a control which receives no MDL compound and the other groups being treated with 0.3% MDL compound. Some of the compounds are either repeated at 0.3% or evaluated again at the lower dose of 0.1%. House Male Sprague-Dawley rats, 50-100 g, (Harlan Laboratories, Indianapolis, Ind.) in groups of 5, feeding ad libitum water and Purina Rodent chow (#5002) with or without MDL compound as a dietary admixture for 4 days. Make dietary admixtures (0.3%) by mixing 1.2 grams of an MDL compound with 400 grams of Purina rodent chow (#5002). Mix the MDL compound with approximately 50 grams of food using a mortar and pestle. This is added to the remainder of the food and mixed for 3 hours on a rotary mixer. In the morning of day 5, anesthetize non-fasted rats with carbon dioxide, and collect blood by cardiac puncture. Sacrifice rats by cervical dislocation. Record body weights and liver weights in grams. Record food consumption as grams·day^-1 ·rat^-1. Deaths are recorded as mortality. Use aliquots of fresh serum for clinical chemistries, thiobarbituric acid reactive substances (TBARS) and conjugated diene measurements. Freeze aliquots of serum (~0.5 mL) and whole livers at -20° C. for compound and metabolite concentration determination at a later time.

oxidation of lipids = experiment: Conjugated diene lag phase determination in rat serum; format: in vivo, Sprague-Dawley rat; settings: rat pooled serum, 0.3% in diet, 4 days; mean of 2 determinations; not normalized to control
Excerpt: as §1, with “Use aliquots of fresh serum for clinical chemistries, thiobarbituric acid reactive substances (TBARS) and conjugated diene measurements. Freeze aliquots of serum (~0.5 mL) and whole livers at -20° C. for compound and metabolite concentration determination at a later time.” left out
Conjugated diene lag phase is another indicator of the oxidation of lipids. […] Measure the absorbances of all cuvettes and set the instrument baseline to zero using the lowest absorbing sample. […] Record the absorbance of each cuvette at 2 min intervals for a period of 840 min. […]

[2] = HPLC quantitation of compound and metabolite concentration in rat serum and liver; settings: in vivo; for concentration at 96 h: po, 0.3% in diet, 4 days
Excerpt: as §1
Determine serum and liver concentrations of parent compound and the metabolites, bisphenol and diphenoquinone, by reverse phase HPLC using a Waters 990 Powerline system. Homegenize livers (1 gram samples) with 5.0 mL PBS, pH 7.4, using a Polytron tissue homogenizer at setting 5 for 20-30 seconds. Extract serum or liver homogenates as follows: add 100 μL of either serum or homogenate to 2.0 mL diethyl ether:ethanol (3:1) while vortexing the tube. Cap the sample tubes and centrifuge for 10 min at 5° C. at 3500 rpm in a Beckman GPKR centrifuge with a GH 3.7 rotor. Transfer the supernatants to clean tubes and dry under N2. Reconstitute samples with 200 μL of acetonitrile:hexane:0.1 M ammonium acetate (90:6.5:3.5, by vol.). Then, inject 100 μL onto a Waters Deltapak C18-300 Å column, and elute with an 83% acetonitrile:17% water mobile phase at a flow rate of 1.5 mL/min. Record absorbances at the wavelengths of 240, 254, and 420nm. Calculate compound concentrations from known quantities of authentic parent compounds after correction for recovery. […]. Calculate concentrations as μg/mL of serum and μg/g of liver.

Male Sprague-Dawley Rats = experiment: Serum clinical chemistries in male Sprague-Dawley rats; format: in vivo
Protocol: Measurement of Antioxidant Activity and Bioavailability of Compounds of Formula (1) By In Vivo Screening in Male Sprague-Dawley Rats
as §1, with “Some of the compounds are either repeated at 0.3% or evaluated again at the lower dose of 0.1%. House Male Sprague-Dawley rats, 50-100 g, (Harlan Laboratories, Indianapolis, Ind.) in groups of 5, feeding ad libitum water and Purina Rodent chow (#5002) with or without MDL compound as a dietary admixture for 4 days. Make dietary admixtures (0.3%) by mixing 1.2 grams of an MDL compound with 400 grams of Purina rodent chow (#5002).” left out
Allow blood to clot at room temperature for 30 minutes. Obtain serum after centrifugation for 10 min at 4° C. at 3000 rpm in a Beckman J-6M/E centrifuge with a JS-4.2 rotor. […] Calculate ALP, ALT, and AST as units/L. Calculate cholesterol, triglycerides, and glucose as mg/dL.

[3] = test system: oxidation of serum lipids; experiment: TBARS assay (oxidation of serum lipids) in male Sprague-Dawley rats; format: in vivo; settings: feed or water, 96 h, rat serum, 4 days, N = 5, CuSO4-initiated, 3 hr, read-out: TBARS, percent of control
Protocol: as §1, with “Some of the compounds are either repeated at 0.3% or evaluated again at the lower dose of 0.1%. House Male Sprague-Dawley rats, 50-100 g, (Harlan Laboratories, Indianapolis, Ind.) in groups of 5, feeding ad libitum water and Purina Rodent chow (#5002) with or without MDL compound as a dietary admixture for 4 days. Make dietary admixtures (0.3%) by mixing 1.2 grams of an MDL compound with 400 grams of Purina rodent chow (#5002).” left out
In this assay the oxidation of serum lipids is initiated with CuSO4, resulting in the formation of aldehydes, such as malondialdehyde (MDA). Upon incubation with thiobarbituric acid, the absorbance of the aldehydes can be detected at 530-540 nm. […] Measure TBARS as follows: mix 100 μL of serum with 400 μL of a 5 mmol CuSO4 solution and incubate at 37° C. for 3 hr. Stop the reactions by addition of 1.0 mL of 20% trichloroacetic acid. […] Centrifuge samples briefly to pellet undissolved material, and transfer the supernatants to a 96-well microtiter plate. Measure absorbances at 540 nm using a Biotek model EL311 microplate reader. The nmoles of MDA produced are calculated from a standard curve of 0 to 10 nmoles of MDA prepared from malonaldehyde bis(dimethylacetal). Serum samples from treated rats are compared to serum samples from control rats that received no MDL compound.

[4] = test system: oxidation of serum lipids; experiment: TBARS assay (oxidation of serum lipids) in cholesterol-fed rabbits; format: in vivo, New Zealand White rabbit; settings: rabbit serum, 0.4% in diet, 7 days, N = 5, CuSO4-initiated, 5 hr
Excerpt: Perform five independent experiments in the following manner. Each study has a control group and 1-5 groups treated with MDL compound (N=5 per group). Feed Female New Zealand White rabbits (Hazelton, ~2.0-2.3 kg) 0.2% cholesterol enriched rabbit chow (Purina #5322) with or without 0.4% MDL compound. Solubilize the MDL compounds in 100% ethanol. Spray the chow with the MDL mixtures and allow to dry overnight in a chemical fume hood. Spray control chow with ethanol. Feed rabbits 100 grams food per day for 7 days (0.6% MDL 103,491 were fed for 14 days); make available water ad libitum. On day 7, bleed (~2 mL) rabbits (fasted overnight) from a marginal ear vein. Euthanize rabbits by carbon dioxide overdose. Record the total body and liver weights in grams. Record food as grams·days^-1 ·rabbits^-1. Use aliquots of fresh serum for clinical chemistries, lipoprotein cholesterol determination, thiobarbituric acid reactive substances (TBARS) and compound and metabolite concentrations in serum. […]
TBARS are a qualitative indication of the oxidation of lipids in a sample. […] Upon incubation with thiobarbituric acid, the absorbance of the aldehydes can be detected at 530-540 nm. […] Measure absorbances at 540 nm using a Biotek model EL311 microplate reader. The nmoles of MDA produced are calculated from a standard curve of 0 to 10 nmoles of MDA prepared from malonaldehyde bis(dimethylacetal). […]

[5] = test system: Cholesterol-Fed Female New Zealand White Rabbits; experiment: Serum cholesterol, lipoprotein cholesterol and triglycerides in cholesterol-fed rabbits; format: in vivo, New Zealand White rabbit; settings: rabbit serum, 0.4% in diet, 7 days, N = 5, fasted overnight
Protocol: Perform five independent experiments in the following manner. […] Solubilize the MDL compounds in 100% ethanol. Spray the chow with the MDL mixtures and allow to dry overnight in a chemical fume hood. Spray control chow with ethanol. […] On day 7, bleed (~2 mL) rabbits (fasted overnight) from a marginal ear vein. Euthanize rabbits by carbon dioxide overdose. Record the total body and liver weights in grams. Record food as grams·days^-1 ·rabbits^-1. Use aliquots of fresh serum for clinical chemistries, lipoprotein cholesterol determination, thiobarbituric acid reactive substances (TBARS) and compound and metabolite concentrations in serum. Freeze livers (~5 gram aliquots) at -20° C. for compound and metabolite concentration determination at a later time.
Allow blood to clot at room temperature for 30 minutes. Obtain serum after centrifugation for 10 min at 5° C. at 3000 rpm in a Beckman GPKR centrifuge with a GH rotor. […] Calculate cholesterol and triglycerides as mg/dL.
Separate lipoprotein fractions (very low density lipoprotein, VLDL, low density lipoprotein, LDL and high density lipoprotein, HDL) on a Sepharose 6HR column (1×30 cm, Pharmacia) attached to a Waters Powerline HPLC system. Inject serum (50 μL) onto the column and elute with phosphate buffered saline, pH 7.4, at a flow rate of 0.5 mL/min. […] Measure absorbance at 500 nm. The lipoprotein subfractions are quantitated as follows:

[6] = Animal parameters (food, body weight, liver weight) in cholesterol-fed rabbits; format: in vivo, New Zealand White rabbit; settings: 0.4% in diet, 7 days, N = 5
Excerpt: Perform five independent experiments in the following manner. Each study has a control group and 1-5 groups treated with MDL compound (N=5 per group). Feed Female New Zealand White rabbits (Hazelton, ~2.0-2.3 kg) 0.2% cholesterol enriched rabbit chow (Purina #5322) with or without 0.4% MDL compound. Solubilize the MDL compounds in 100% ethanol. Spray the chow with the MDL mixtures and allow to dry overnight in a chemical fume hood. Spray control chow with ethanol. Feed rabbits 100 grams food per day for 7 days (0.6% MDL 103,491 were fed for 14 days); make available water ad libitum. On day 7, bleed (~2 mL) rabbits (fasted overnight) from a marginal ear vein. Euthanize rabbits by carbon dioxide overdose. Record the total body and liver weights in grams. Record food as grams·days^-1 ·rabbits^-1. Use aliquots of fresh serum for clinical chemistries, lipoprotein cholesterol determination, thiobarbituric acid reactive substances (TBARS) and compound and metabolite concentrations in serum. Freeze livers (~5 gram aliquots) at -20° C. for compound and metabolite concentration determination at a later time.

[7] = in vivo, 0.3% in diet, 4 days, N = 5
[8] = mean N = 5, read-out: Serum Parent (parent compound concentration)
[9] = rat serum, 0.3% in diet, 4 days, N = 5

Structure (SMILES)	mortality at 96 h [1, 7] [%]	body wt., percent of control ([1]; 0.3% in diet, 4 days, N = 5) [%]	Liver Bis (bisphenol concentration) ([2]; 5760 min)	Liver Quin (diphenoquinone concentration) ([2]; 5760 min)	Serum Bis (bisphenol concentration) ([2]; 5760 min)	Serum Quin (diphenoquinone concentration) ([2]; 5760 min)	concentration at 96 h [2, 8] [ng/mL]	ALP (alkaline phosphatase), percent of control (Male Sprague-Dawley Rats; [9]) [%]	AST (aspartate aminotransferase), percent of control (Male Sprague-Dawley Rats; [9]) [%]	response vs control in vivo at 0.3 % in diet [3] [%]	further results
CC(C)=CCCC(C)CCOc1ccc(O)c(C(C)(C)C)c1 (centres unmarked) [105,411]	0	101	0	0	0	0	1100	76	87	29	food (grams eaten per day per rat), percent of control ([1]; in vivo): 95%; CONJ. DIENE (conjugated diene lag phase) (oxidation of lipids): 400 min; Liver Parent (parent compound concentration) ([2]; 5760 min): 0; ALT (alanine aminotransferase), percent of control (Male Sprague-Dawley Rats; [9]): 122%; GLUC (glucose), percent of control (Male Sprague-Dawley Rats; rat, in vivo): 96%
CC(C)=CCC[C@H](C)CCOc1cc(C(C)(C)C)c(O)c(C(C)(C)C)c1 [103,294]	0	101	0	0	0	0	21700	124	88	18	TBARS, percent of control [4]: 35%; LDL cholesterol, percent of control [5]: 82%; chol tot. (total cholesterol), percent of control [5]: 94%; food (grams eaten per day per rat), percent of control ([1]; 0.3% in diet, 4 days, N = 5): 108%; concentration at 96 h ([2]; mean N = 5, read-out: Liver Parent (parent compound concentration)): 64600 ng/g; GLUC (glucose), percent of control (Male Sprague-Dawley Rats; [9]): 103%; ALT (alanine aminotransferase), percent of control (Male Sprague-Dawley Rats; rat, in vivo): 132%; food (grams eaten per day per rabbit), percent of control [6]: 103%; body wt., percent of control ([6]; rabbit): 100%; lw/bw (liver weight/body weight), percent of control ([6]; rabbit): 105%
